Source: patent US7491733B2, “Bicyclic guanidine derivatives and therapeutic uses thereof” (Merck Patent GmbH, priority 2001, dated 2009)
Structures can show the parent of a compound that is named as a salt. Where two headings read alike, the source gives them in different places.

Assays:
Nostz Rats = experiment: Oral antidiabetic activity in Nostz rats (non-insulin-dependent diabetes induced by neonatal steptozotocin); change in glycaemia; type: in vivo; details: Rattus norvegicus, blood sample two hours after the final administration, diabetic rats; for change in vivo at 20 mg/kg: 20 mg/kg/day; for change in vivo at 200 mg/kg: 200 mg/kg/day
Procedure: Study of the Antidiabetic Activity in Nostz Rats
The oral antidiabetic activity of the compounds of the formula (I) was determined on an experimental model of non-insulin-dependent diabetes, induced in the rats with steptozotocin.
The model of non-insulin-dependent diabetes is obtained in the rats by means of a neonatal injection (on the day of birth) of steptozotocin.
The diabetic rats used are eight weeks old. The animals are housed, from the day of birth to the day of the experiment, in an animal house at a regulated temperature of 21 to 22° C. and subjected to a fixed cycle of light (from 7 a.m. to 7 p.m.) and darkness (from 7 p.m. to 7 a.m.). Their food consisted of a maintenance diet, and water and food were given “ad libitum”, with the exception of fasting two hours before the tests, during which period the food is removed (post-absorptive state).
The rats are treated orally for one (D1) or four (D4) days with the test product. Two hours after the final administration of the product and 30 minutes after the animals have been anaesthetised with pentobarbital sodium (Nembutal®), a 300 μl blood sample is taken from the end of the tail.
By way of example, results obtained are collated in Table 2.

[1] = 24 h, one day of treatment (D1), read-out: percentage change in the glycaemia on D1 relative to D0
[2] = 96 h, four days of treatment (D4), read-out: percentage change in the glycaemia on D4 relative to D0

Structure (SMILES) | melting point [°C] | change in vivo at 20 mg/kg (Nostz Rats; [1]) [%] | change in vivo at 200 mg/kg (Nostz Rats; [1]) [%] | change in vivo at 20 mg/kg (Nostz Rats; [2]) [%] | change in vivo at 200 mg/kg (Nostz Rats; [2]) [%]
Cn1c(CNC(=N)N)cc2cc(F)ccc21 (as salt: hydrochloride) [Compound 14] | 181 to 183 |  |  |  | 
COc1ccc2c(c1)cc(CNC(=N)N)n2C (as salt: sulfate) [Compound 12] | 233 to 235 |  |  |  | 
COc1ccc2[nH]c(CNC(=N)N)cc2c1 (as salt: sulfate) [Compound 13] | 213 to 215 |  |  |  | 
CN(Cc1nc2ccccc2s1)C(=N)N [Compound 1, 2-(aminoiminomethyl(methylamino)methyl)-benzothiazole hydrochloride] |  | 5 | -9 | -4 | -23
N=C(N)NCc1nc2ccccc2[nH]1 [Compound 2, 2-(aminoiminomethylamino)methylbenzimidazole hydrochloride] |  | -17 | -10 | -13 | -25
N=C(N)NCC1Cc2ccccc2C1 [Compound 3, 2-(aminoiminomethylamino)methylindane sulfate] |  | 2 | -14 | -10 | -29
N=C(N)NCc1nc2ccccc2s1 [Compound 5] |  | -18 | -30 | -3 | -26
CN(Cc1nc2ccccc2[nH]1)C(=N)N [Compound 6] |  | 3 | -6 | 0 | -16
N=C(N)NCc1cc2ccccc2[nH]1 [Compound 7] |  | -5 | -19 | -9 | -28
N=C(N)NCC1Cc2ccccc2N1 (centres unmarked) [Compound 8] |  | -7 | -10 | -12 | -9
COc1cc2c(cc1OC)CC(CNC(=N)N)C2 [Compound 11] |  | -1 | -8 | -8 | -14
COc1ccc2c(c1)cc(CNC(=N)N)n2C [Compound 12] |  |  | -22 |  | -26
COc1ccc2[nH]c(CNC(=N)N)cc2c1 [Compound 13] |  |  | -16 |  | -26
N=C(N)NCc1cc2ccccc2o1 [Compound 15] |  | -23 | -29 | -28 | -31

The next lines start with results.

melting point [°C] | Structure (SMILES) | change in vivo at 20 mg/kg (Nostz Rats; [1]) [%] | change in vivo at 200 mg/kg (Nostz Rats; [1]) [%] | change in vivo at 20 mg/kg (Nostz Rats; [2]) [%] | change in vivo at 200 mg/kg (Nostz Rats; [2]) [%]
189 to 191 | N=C(N)NCC1Cc2ccccc2N1 (centres unmarked) (as salt: hemisulfate) [Compound 8] |  |  |  | 
203 to 205 | CN(Cc1nc2ccccc2s1)C(=N)N (as salt: hydrochloride) [Compound 1, 2-(aminoiminomethyl(methylamino)methyl)-benzothiazole hydrochloride] |  |  |  | 
171 to 173 | N=C(N)NCc1nc2ccccc2[nH]1 (as salt: hydrochloride) [Compound 2, 2-(aminoiminomethylamino)methylbenzimidazole hydrochloride] |  |  |  | 
196 to 198 | N=C(N)NCc1nc2ccccc2s1 (as salt: hydrochloride) [Compound 5] |  |  |  | 
253 to 255 | CN(Cc1nc2ccccc2[nH]1)C(=N)N (as salt: hydrochloride) [Compound 6] |  |  |  | 
209 to 211 | CN(CC1=Cc2ccccc2C1)C(=N)N (as salt: hydrochloride) [Compound 16] |  |  |  | 
231 to 233 | N=C(N)NCC1Cc2ccccc2C1 (as salt: sulfate) [Compound 3, 2-(aminoiminomethylamino)methylindane sulfate] |  |  |  | 
191 to 193 | COc1cc2c(cc1OC)CC(CNC(=N)N)C2 (as salt: sulfate) [Compound 11] |  |  |  | 
244 to 247 | N=C(N)NCc1cc2ccccc2o1 (as salt: sulfate) [Compound 15] |  |  |  | 
> 250 | N=C(N)NCC1Cc2cc(F)c(F)cc2C1 (as salt: sulfate) [Compound 17] |  |  |  | 
139 to 141 | N=C(N)NCC1Cc2ccccc2O1 (centres unmarked) [Compound 9] |  |  |  | 
187 to 189 | N=C(N)NCC1Cc2ccccc2S1 (centres unmarked) [Compound 10] | -3 | -21 | -5 | -25
